Experiments:
[1] = system: Mmp9; test: MMP9 activity by gelatin zymography in conditioned media of mouse peritoneal macrophages cultured on fibronectin; format: cell-based; details: for maximal inhibition of fibronectin-induced MMP9 production/activity: both wild type and Arhgef1-deficient macrophages, aspirin up to 20 mM, L-161,982, PTA2 1.56 or 6.25 μM, L-655,240 28 μM
Protocol: (§1) FIG. 5. TP-induced MMP9 production is only partially dependent on COX activity. A) PEMs were cultured on fibronectin for 24 hours with 5% FCS, washed then treated with different concentration of aspirin or 1.6 μM PTXA2 at for an additional 24 hours without FCS. MMP9 activity was determined by zymography from supernatants of wild type (open) or Arhgef1−/− (filled) macrophages. Activity was normalized to activity generated from cells cultured on fibronectin without treatment. B) MMP9 activity in conditioned media from peripheral blood monocytes cultured as described in panel A. Data represents mean±SE (n=3 independent donors).
FIG. 6. The antioxidant mimetic MnTE-2PyP reduces MMP9 activity in macrophages. PEMs were cultured on fibronectin for 24 hours with 5% FCS, washed then treated with MnTE-2PyP at the indicated concentrations for an additional 24 hours without FCS. MMP9 activity was determined by zymography from supernatants of wild type (open) or Arhgef1−/− (filled) macrophages. Activity was normalized to activity generated from cells cultured on fibronectin without treatment.
FIG. 11. Cyclooxygenase activity but not EP4 receptor signaling is required for MMP9 production by murine macrophages cultured on fibronectin. A, representative MMP9 gelatin zymograms of conditioned media from peritoneal macrophages cultured on either plastic (ctl) or FN and treated with increasing concentrations of aspirin (1.25, 5.0, and 20 mM, respectively). Wild type (+/+) and Arhgef1^−/− (−/−) samples from separate zymograms are shown. Molecular weight standards and respective enzymatic activities of MMP9 and MMP2 are shown. B, quantitation of MMP9 activity as determined by densitometric analysis of zymograms in A. MMP 9 activity is shown in arbitrary units and represents n=6 for both wild type (open bars) and Arhgef1^−/− (black bars) samples. The results are compiled from two independent experiments. The data represent the means±S.E. *, p<0.05 Student's two-tailed t test compared with conditioned media from cells cultured on plastic. #, p<0.05 Student's two-tailed test comparing conditioned media from wild type cells to Arhgef1^−/− cells cultured under identical conditions. $, p<0.05 Student's two-tailed t test compared with conditioned media from cells cultured on fibronectin. C, quantitation of MMP9 activity in conditioned media from macrophages cultured on fibronectin in the presence of the EP4 antagonist L161,982 (10 μM). MMP9 activity was normalized to fibronectin response for each genotype. The results are compiled from two independent experiments with wild type (open bars, n=5) and Arhgef1^−/− (black bars, n=5) samples. The data represent the means±S.E. *, p<0.05 Student's two-tailed t test compared with conditioned media from cells cultured on plastic. #, p<0.05 Student's two-tailed t test compared with conditioned media from cells cultured on fibronectin.
FIG. 12. Thromboxane receptor signaling is necessary for fibronectin-induced MMP9 production by macrophages and is attenuated by Arhgef1. A, representative gelatin zymograms of conditioned media from macrophages cultured on plastic (ctl) or FN and treated with 1.56 or 6.25 μM of the thromboxane receptor antagonist PTA2. Wild type (+/+) and Arhgef1^−/− (−/−) samples from separate zymograms are shown. B, quantitation of MMP9 activity as determined by densitometric analysis of zymograms in A. The results are representative of two independent experiments. C, representative zymograms from conditioned media from macrophages cultured on plastic or fibronectin and treated with 28 μM of the thromboxane receptor antagonist L-655,240. D, quantitation of MMP9 activity as determined by densitometric analysis of zymograms in C. The results are compiled from two independent experiments with n=4 for both wild type (open bars) and Arhgef1^−/− (black bars) samples. […]

[2] = system: MMP9; test: MMP9 activity by zymography in conditioned media of human peripheral blood monocytes cultured on fibronectin; format: cell-based
Protocol: as §1
Tissue-culture 96-well plates (Costar high binding catalogue number 3590) were coated with 10 μg/ml of murine fibronectin (Molecular Innovations, Nori, Minn.; catalogue number MFBN) or human fibronectin (Molecular Innovations; catalogue number HFBN) in DPBS without Ca^2+ or Mg^2+ (Mediatech, Inc., Manassas, Va.) for 2 h at room temperature. […] PGE2 and TXB2 were measured in conditioned medium by ELISA according to the manufacturer's instructions (ElisaTech, Aurora, Colo.). […]
Peripheral blood monocytes were isolated from whole blood of healthy volunteers using protocols approved by the National Jewish Health Human Subjects Institutional Review Board. […] This procedure consistently yields monocyte purities of >80% as assessed by flow cytometry. […]

Compound | maximal inhibition of fibronectin-induced MMP9 production/activity [1] | fibronectin-mediated MMP9 activity (effect in words) ([1]; mouse macrophages, wild type and Arhgef1−/−, 1.6 μM PTXA2, 28 μM L-655,240) | fibronectin-mediated MMP9 activity (effect in words) ([2]; human peripheral blood monocytes, 1.6 μM PTXA2) | reduction of MMP9 activity ([1]; mouse peritoneal macrophages on fibronectin, highest aspirin concentration 5 mM, 24 h) | reduction of MMP9 activity ([2]; human monocytes on fibronectin, highest aspirin concentration 5 mM, 24 h)
CCCCC[C@@H](O)/C=C/[C@H]1C[C@H]2C[C@@H]([C@@H]1C/C=C\CCCC(=O)O)C2(C)C (relative stereo) [PTXA2, (18-(1alpha,2beta(Z),3alpha(1E,3S*),5alpha))-7-(3-(3-Hydroxy-1-octenyl)-6,6-dimethylbicyclo(3.1.1)hept-2-yl)-5-heptenoic acid] | 80-85% | virtually ablated fibronectin-mediated MMP9 activity | virtually ablated fibronectin-mediated MMP9 activity |  | 
CC(=O)Oc1ccccc1C(=O)O [aspirin] | 70-75% |  |  | 40-50% | 40-50%

From US9820951B2, “Pulmonary disease treatment and diagnosis based on Arhgef1” (NATIONAL JEWISH HEALTH, A NON-PROFIT ORGANIZATION, priority 2011, dated 2017)
